Data from US8263601B2, “Deuterium substituted xanthine derivatives” (CoNCERT Pharmaceuticals, Inc., priority 2009, dated 2012).
Read-outs that look alike come from different tables or passages of the source. One block for each compound: values may come before it.

How the values were obtained:
[1] = design: species or system beagle dogs; details: dog, in vivo, po
Method: Example 34a was repeated with additional monitoring of the pentoxifylline and Compound 409 metabolites. In this experiment Compound 409 and pentoxifylline were dissolved separately in saline to a concentration of 4.4 and 4 mg/mL respectively. A 1:1 (v/v) mixture of the two solutions was prepared to yield a solution having a final concentration of 2.2 mg/mL of Compound 409 and 2 mg/mL pentoxifylline. Post-dosing data analysis included adjustments to account for the 10% difference in dosing concentration between compound 409 and pentoxifylline.
Four beagle dogs (2-3 years of age, and weighed 5 to 8 kg) were fasted overnight and then orally dosed via gavage with 2.75 mg/kg Compound 409 and 2.5 mg/kg pentoxifylline using the mixture described above. Blood samples (approximately 1 mL) were collected via femoral vein at 0 min (pre-dose), 5 min, 15 min, 30 min, 45 min, 1 hr, 1.5 hr, 2 hr, 3 hr, 4 hr, and 6 hr post-dose. Blood was stored on ice prior to centrifugation to obtain plasma samples. Centrifugation took place within 15 minutes of blood collection to harvest plasma (maximum volume). The plasma was decanted immediately and frozen/stored at −20° C. until analysis.
Plasma samples were analyzed by LC-MS/MS for the presence of the administered compound and its corresponding M1 metabolite:
The results from one of the four dogs (Dog H, FIG. 1b) were inconsistent with that of the other three. […] It was concluded that this dog was most likely improperly gavaged and that the compounds were probably administered through the trachea, rather than into the GI tract as would have been desired. Accordingly, the data from this dog was excluded from the analyses.

[2] = Stability of compounds in rat whole blood (Example 35); format: in vitro ADME; details: 5 μM, 37° C.; for Keto-compound (pentoxifylline or Compound 409) formed from M-1 alcohol: 2 hours, FIG. 3
Method: This study was performed to evaluate the stability of the title compounds in rat whole blood. Because the ketone (or keto-compound; either pentoxifylline or 409) and its corresponding M-1 alcohol metabolite interconvert, levels of these components were measured after either the keto-compound was added to the blood or the M-1 was added. In other words, in some tests the keto-compound was the starting test compound and in other tests an M-1 metabolite was the starting test compound.
Fresh rat whole blood was obtained from ViviSource Laboratories, Waltham, Mass. Stock solutions (7.5 millimolar (mM)) of test compounds were prepared in dimethyl sulfoxide (DMSO). The 7.5 mM stock solutions were diluted to 500 micromolar (μM) in acetonitrile (ACN). To 990 microliters (μL) of blood pre-warmed to 37° C. for 7 minutes was added 10 μl, of 500 μM test compound to a final concentration of 5 μM. The test compounds were pentoxifylline, (S)-M1 metabolite of pentoxifylline, (R)-M1 metabolite of pentoxifylline, Compound 409, Compound 435(S), and Compound 435(R). The latter two test compounds are deuterated (S)-M1 and (R)-M1 metabolites, respectively, of Compound 409. The reaction mixture was incubated at 37° C. Aliquots (50 μL) were removed at 0 min, 5 min, 15 min, 30 min, 1 hour and 2 hours following the addition of test compound and added to 96-well plates containing 150 μL of ice cold acetonitrile with an internal standard to stop the reaction. The plates were stored at −20° C. for 20 minutes after which 100 μL of 50% acetonitrile/water was added to the wells of the plate prior to centrifugation to pellet precipitated proteins. A 200-μL aliquot of each supernatant was transferred to another 96-well plate and analyzed by LC-MS/MS using an Applied Bio-systems API 4000 mass spectrometer for amounts of the administered compound and its specific metabolite listed in Table 11 below.
The results of this study are depicted in FIGS. 2 and 3.

[3] = Compound stability in human liver microsomes (Example 36); format: in vitro ADME; details: human liver microsomes 2.0 mg/mL, 5 μM, NADPH, 30 minutes, FIG. 5 columns A and B
Method: Example 36 is similar to Example 35 in design, except that human liver microsomes were used instead of rat whole blood to study the metabolism of the compounds.
Human liver microsomes (20 mg/mL) were obtained from Xenotech, LLC (Lenexa, Kans.). β-nicotinamide adenine dinucleotide phosphate, reduced form (NADPH), magnesium chloride (MgCl2), and dimethyl sulfoxide (DMSO) were purchased from Sigma-Aldrich.
Stock solutions containing 7.5 mM of test compounds (pentoxifylline, (S)-M1 metabolite, (R)-M1 metabolite, Compound 409, Compound 435(S), and Compound 435(R)) were prepared in DMSO. The 7.5-mM stock solutions were diluted to 250 μM in acetonitrile (ACN). The human liver microsomes were diluted to 2.5 mg/mL in 0.1 M potassium phosphate buffer, pH 7.4, containing 3 mM MgCl2. The diluted microsomes were added to wells of a 96-well deep-well polypropylene plate in triplicate. 10 μL of the 250 μM test compound was added to the microsomes and the mixture was pre-warmed to 37° C. for 10 minutes. Reactions were initiated by addition of pre-warmed NADPH solution. The final reaction volume was 0.5 mL and contained 2.0 mg/mL human liver microsomes, 5 μM test compound, and 2 mM NADPH in 0.1M potassium phosphate buffer, pH 7.4, and 3 mM MgCl2. The reaction mixtures were incubated at 37° C., and 50-μL aliquots were removed at 0, 5, 10, 20, and 30 minutes and added to shallow-well 96-well plates which contained 50 μL of ice-cold acetonitrile with internal standard to stop the reactions. The plates were stored at 4° C. for 20 minutes after which 100 μL of water was added to the wells of the plate before centrifugation to pellet precipitated proteins. Supernatants were transferred to another 96-well plate and analyzed for the amount of the administered compound and its specific metabolite (listed in Table 11 above) by LC-MS/MS using an Applied Bio-systems API 4000 mass spectrometer.
The results of this study are depicted in FIGS. 4 and 5. […]

[4] = in vivo; design: species or system male beagle dogs; details: male, beagle, dog, po
Method: Metabolism of the title compounds were studied following oral administration to male beagle dogs. Blood samples were removed from dosed dogs at various time points and plasma isolated therefrom. The plasma samples were used for the determination of plasma drug levels by LC-MS/MS (liquid chromatography with tandem mass spectrometry) for estimating pharmacokinetic parameters.
Compound 409 and pentoxifylline were dissolved separately in saline to a concentration of 4 mg/mL. A 1:1 (v/v) mixture of the two solutions was prepared to yield a solution having a final concentration of 2 mg/mL of both Compound 409 and pentoxifylline.
Two male beagle dogs were fasted overnight and then orally dosed via gavage with 2.5 mg/kg of Compound 409 and pentoxifylline using the mixture described above. Blood samples (1.5-2 mL) were collected via the femoral vein at 0 min (pre-dose), 15 min, 30 min, 45 min, 1 hr, 1.5 hr, 2 hr, 3 hr, 4 hr, 6 hr, 8 hr, 10 hr, 12 hr, 16 hr and 24 hr post-dose. Blood was stored on ice prior to centrifugation to obtain plasma samples. Centrifugation took place within 1 hour of blood collection to harvest plasma (maximum volume). The plasma was decanted immediately and frozen/stored at −70° C. until analysis.

[5] = design: species or system male beagle dogs; details: male, beagle, dog, in vivo, po
Method: This study was similar to those described in Examples 34a and 34b, except that Compound 413 was evaluated. Four male beagle dogs were orally dosed by gavage with a mixture containing 2 mg/mL each of pentoxifylline and Compound 413 in saline. Blood samples were taken as in Example 34b.

SMILES: [2H]c1nc2c(c(=O)n(CCCC([2H])([2H])C(O)C([2H])([2H])[2H])c(=O)n2C)n1C([2H])([2H])[2H] (racemic) [Compound 419, (±)-8-d1-1-(4,4,6,6,6-d5-5-Hydroxyhexyl)-3-methyl-7-(methyl-d3)-1H-purine-2,6(3H,7H)-dione]
Overall systemic exposure to M1 metabolite compared to M1 following dosing of pentoxifylline [1]: greater

SMILES: C[C@@H](O)CCCCn1c(=O)c2c(ncn2C)n(C)c1=O [(R)-M1, reference compound]
Keto-compound (pentoxifylline or Compound 409) formed from M-1 alcohol [2]: No metabolism of (R)-M1 to pentoxifylline was detected

% Difference in Ave. AUC (deuterated vs nondeuterated species) [4]: +80% | % Difference in Ave. Cmax (deuterated vs nondeuterated species) [4]: +57% | AUC ([4]; 2.5 mg/kg): 811 ng·h/mL | Cmax ([4]; 2.5 mg/kg): 1230 ng/mL | % Difference in Ave. AUC (deuterated vs nondeuterated species) ([1]; beagle): +97% | % Difference in Ave. Cmax (deuterated vs nondeuterated species) ([1]; beagle): +80%
SMILES: [2H]c1nc2c(c(=O)n(CCCC([2H])([2H])C(=O)C([2H])([2H])[2H])c(=O)n2C)n1C([2H])([2H])[2H] [Compound 409, 8-d1-3-methyl-7-(methyl-d3)-1-(6-d3-4-d2-5-oxohexyl)-1H-purine-2,6(3H,7H)-dione]
Amount of (S)-M1 type metabolite (Compound 419(S)) formed from keto-compound, compared to (S)-M1 formed from pentoxifylline [3]: similar | Clearance from the plasma compared to pentoxifylline [1]: more slowly cleared | Amount of (S)-M1 type metabolite (Compound 419(S)) formed from keto-compound, compared to (S)-M1 formed from pentoxifylline ([2]; approximately 2 hours, FIG. 3 columns A and B): similar

% Difference in Ave. AUC (deuterated vs nondeuterated species) [5]: +74% | % Difference in Ave. Cmax (deuterated vs nondeuterated species) [5]: +47%
SMILES: [2H]c1nc2c(c(=O)n(CCCC([2H])([2H])C(=O)C([2H])([2H])[2H])c(=O)n2C([2H])([2H])[2H])n1C([2H])([2H])[2H] [Compound 413, 8-d1-3,7-Di(methyl-d3)-1-(4,4,6,6,6-d5-5-oxohexyl)-1H-purine-2,6(3H,7H)-dione]

SMILES: [2H]c1nc2c(c(=O)n(CCCC([2H])([2H])[C@]([2H])(O)C([2H])([2H])[2H])c(=O)n2C)n1C([2H])([2H])[2H] [Compound 435(R), (R)-8-d1-1-(4,4,5,6,6,6-d6-5-Hydroxyhexyl)-3-methyl-7-(methyl-d3)-1H-purine-2,6(3H,7H)-dione]
Keto-compound (pentoxifylline or Compound 409) formed from M-1 alcohol [2]: not detected
